Data reported in patent US6589973B1, “Preparation of selective cyclooxygenase II inhibitors” (THEMIS Medicare Ltd., priority 2002, dated 2003).

How the values were obtained:
[1] = background statement; cited from earlier work
[2] = system: Hot Plate Analgesometer in rats; test: Central analgesic activity, hot plate (55° C) in rats; design: species or system Albino rats; conditions: rat, in vivo

Compound | solubility in water (in words) [1] | further results
Cc1ccc(-c2cc(C(F)(F)F)nn2-c2ccc(S(N)(=O)=O)cc2)cc1 [Celecoxib] | poorly soluble in water | –
COc1ccc(-c2cc(C(F)F)nn2-c2ccc(S(N)(=O)=O)cc2)cc1F [Deracoxib] | poorly soluble in water | –
CC(C)=CCN1CCC2(C)c3cc(O)ccc3CC1C2C (centres unmarked) [Pentazocin] | – | % Increase in Reaction Time (IRT) [2]: 92.85%; Basal Reaction Time (BRT) [2]: 6.33 ± 0.41 s; Latent Reaction Time (LRT) [2]: 11.66 ± 1.60 s
CS(=O)(=O)c1ccc(C2=C(c3ccccc3)C(=O)OC2)cc1 [Rofecoxib] | poorly soluble in water | –
Cc1onc(-c2ccccc2)c1-c1ccc(S(N)(=O)=O)cc1 [Valdecoxib] | poorly soluble in water | –
Itacoxib | poorly soluble in water | –
